Data from US12642797B2, “Coated granule, solid dispersion, and preparation containing vortioxetine hydrobromide for oral taste masking” (Seasons Biotechnology (Taizhou) Co., Ltd., priority 2019, dated 2026).
Where a name gives a salt, the structure may show the parent alone.

Columns and labels:
[1] = system: oral cavity and tongue; assay: Taste and irritation test by subjects (self-made sample vs reference sample); format: in vivo, human; settings: for Instantaneous irritation / Delayed irritation: hemihydrobromide
Description: In the examples, the taste masking effects of test samples were evaluated by the subject's perception of the bitterness and irritation of the oral cavity and tongue. The Taste and Irritation Classification Tested by the Subjects: [table]

[2] = Solubility in sodium acetate medium pH 6.8 simulating the oral environment (USP method); format: physicochemical; settings: sodium acetate medium pH 6.8, USP method; hemihydrobromide
[3] = system: tongue; assay: Comparative Example 1: comparison of taste of different vortioxetine salts (10 subjects, 30 attempts); settings: converted to the same amount of C18H22N2S
Description: The vortioxetine lactate salt, vortioxetine hydrobromide and vortioxetine hemihydrobromide equivalent to 5 mg of vortioxetine respectively over 100 mesh powders were put directly in front of the upper part of the tongue for one minute. There were 10 subjects in each salt-type group, and each subject randomly tried each salt-type 3 times. After trying one salt-type taste, rinsed your mouth, and try another salt-type after there was no irritation. After trying the taste, record the bitterness level and tongue irritation, spit it out a few seconds later, rinse your mouth, record the time for the irritation to subside, eat 1-1.5 hours later, and record the irritation again.

## Cc1ccc(Sc2ccccc2N2CCNCC2)c(C)c1 [vortioxetine hemihydrobromide]
[1]; Subject 4, 0-1 minute, powder equivalent to 20 mg of vortioxetine tasted, listed as Reference sample (2a)
  Instantaneous irritation: ++ (+ + Irritating, tolerable)
[1]; Subject 4, 0-1 minute, powder equivalent to 20 mg of vortioxetine tasted, listed as Reference sample (2c)
  Instantaneous irritation: ++ (+ + Irritating, tolerable)
[1]; Subject 4, 0-1 minute, powder equivalent to 20 mg of vortioxetine tasted, listed as Reference sample (3a)
  Instantaneous irritation: +++ (+ + + Strong irritation, intolerable)
[1]; Subject 4, 0-1 minute, powder equivalent to 20 mg of vortioxetine tasted, listed as Reference sample (3b)
  Instantaneous irritation: +++ (+ + + Strong irritation, intolerable)
[1]; Subject 4, 0-1 minute, powder equivalent to 20 mg of vortioxetine tasted, listed as Reference sample (3c)
  Instantaneous irritation: +++ (+ + + Strong irritation, intolerable)
[1]; Subject 4, 0-1 minute, powder equivalent to 20 mg of vortioxetine tasted, listed as Reference sample (4a)
  Instantaneous irritation: +++ (+ + + Strong irritation, intolerable)
[1]; Subject 4, 0-1 minute, powder equivalent to 20 mg of vortioxetine tasted, listed as Reference sample (1d)
  Instantaneous irritation: ++ (+ + Irritating, tolerable)
[1]; Subject 4, 0-1 minute, powder equivalent to 20 mg of vortioxetine tasted, listed as Reference sample (2d)
  Instantaneous irritation: ++ (+ + Irritating, tolerable)
[1]; Subject 4, powder equivalent to 20 mg of vortioxetine tasted, listed as Reference sample (1a)
  Delayed irritation: 15 to 30 min
[1]; Subject 4, powder equivalent to 20 mg of vortioxetine tasted, listed as Reference sample (1e)
  Delayed irritation: 15 to 30 min
[1]; Subject 4, powder equivalent to 20 mg of vortioxetine tasted, listed as Reference sample (2a)
  Delayed irritation: >30 min
[1]; Subject 4, powder equivalent to 20 mg of vortioxetine tasted, listed as Reference sample (2c)
  Delayed irritation: >30 min
[1]; Subject 4, powder equivalent to 20 mg of vortioxetine tasted, listed as Reference sample (3a)
  Delayed irritation: 1 to 15 min
[1]; Subject 4, powder equivalent to 20 mg of vortioxetine tasted, listed as Reference sample (3b)
  Delayed irritation: 1 to 15 min
[1]; Subject 4, powder equivalent to 20 mg of vortioxetine tasted, listed as Reference sample (3c)
  Delayed irritation: >30 min
[1]; Subject 4, powder equivalent to 20 mg of vortioxetine tasted, listed as Reference sample (4a)
  Delayed irritation: >30 min
[1]; Subject 4, powder equivalent to 20 mg of vortioxetine tasted, listed as Reference sample (5)
  Delayed irritation: >30 min
[1]; Subject 4, powder equivalent to 20 mg of vortioxetine tasted, listed as Reference sample (6)
  Delayed irritation: 15 to 30 min
[1]; Subject 4, powder equivalent to 20 mg of vortioxetine tasted, listed as Reference sample (7a)
  Delayed irritation: >30 min
[1]; Subject 4, powder equivalent to 20 mg of vortioxetine tasted, listed as Reference sample (8a)
  Delayed irritation: >30 min
[1]; Subject 4, powder equivalent to 20 mg of vortioxetine tasted, listed as Reference sample (8b)
  Delayed irritation: >30 min
[1]; Subject 4, powder equivalent to 20 mg of vortioxetine tasted, listed as Reference sample (1d)
  Delayed irritation: 15 to 30 min
[1]; Subject 4, powder equivalent to 20 mg of vortioxetine tasted, listed as Reference sample (2d)
  Delayed irritation: >30 min
[1]; Subject 5, 0-1 minute, powder equivalent to 20 mg of vortioxetine tasted, listed as Reference sample (1a)
  Instantaneous irritation: +++ (+ + + Strong irritation, intolerable)
[1]; Subject 5, 0-1 minute, powder equivalent to 20 mg of vortioxetine tasted, listed as Reference sample (1e)
  Instantaneous irritation: +++ (+ + + Strong irritation, intolerable)
[1]; Subject 5, 0-1 minute, powder equivalent to 20 mg of vortioxetine tasted, listed as Reference sample (2a)
  Instantaneous irritation: +++ (+ + + Strong irritation, intolerable)
[1]; Subject 5, 0-1 minute, powder equivalent to 20 mg of vortioxetine tasted, listed as Reference sample (2c)
  Instantaneous irritation: +++ (+ + + Strong irritation, intolerable)
[1]; Subject 5, 0-1 minute, powder equivalent to 20 mg of vortioxetine tasted, listed as Reference sample (3a)
  Instantaneous irritation: +++ (+ + + Strong irritation, intolerable)
[1]; Subject 5, 0-1 minute, powder equivalent to 20 mg of vortioxetine tasted, listed as Reference sample (3b)
  Instantaneous irritation: +++ (+ + + Strong irritation, intolerable)
[1]; Subject 5, 0-1 minute, powder equivalent to 20 mg of vortioxetine tasted, listed as Reference sample (3c)
  Instantaneous irritation: ++ (+ + Irritating, tolerable)
[1]; Subject 5, 0-1 minute, powder equivalent to 20 mg of vortioxetine tasted, listed as Reference sample (4a)
  Instantaneous irritation: ++ (+ + Irritating, tolerable)
[1]; Subject 5, 0-1 minute, powder equivalent to 20 mg of vortioxetine tasted, listed as Reference sample (1d)
  Instantaneous irritation: +++ (+ + + Strong irritation, intolerable)
[1]; Subject 5, 0-1 minute, powder equivalent to 20 mg of vortioxetine tasted, listed as Reference sample (2d)
  Instantaneous irritation: ++ (+ + Irritating, tolerable)
[1]; Subject 5, powder equivalent to 20 mg of vortioxetine tasted, listed as Reference sample (1a)
  Delayed irritation: >30 min
[1]; Subject 5, powder equivalent to 20 mg of vortioxetine tasted, listed as Reference sample (1e)
  Delayed irritation: >30 min
[1]; Subject 5, powder equivalent to 20 mg of vortioxetine tasted, listed as Reference sample (2a)
  Delayed irritation: 15 to 30 min
[1]; Subject 5, powder equivalent to 20 mg of vortioxetine tasted, listed as Reference sample (2c)
  Delayed irritation: 15 to 30 min
[1]; Subject 5, powder equivalent to 20 mg of vortioxetine tasted, listed as Reference sample (3a)
  Delayed irritation: 1 to 15 min
[1]; Subject 5, powder equivalent to 20 mg of vortioxetine tasted, listed as Reference sample (3b)
  Delayed irritation: 1 to 15 min
[1]; Subject 5, powder equivalent to 20 mg of vortioxetine tasted, listed as Reference sample (3c)
  Delayed irritation: >30 min
[1]; Subject 5, powder equivalent to 20 mg of vortioxetine tasted, listed as Reference sample (4a)
  Delayed irritation: 15 to 30 min
[1]; Subject 5, powder equivalent to 20 mg of vortioxetine tasted, listed as Reference sample (5)
  Delayed irritation: 15 to 30 min
[1]; Subject 5, powder equivalent to 20 mg of vortioxetine tasted, listed as Reference sample (6)
  Delayed irritation: >30 min
[1]; Subject 5, powder equivalent to 20 mg of vortioxetine tasted, listed as Reference sample (7a)
  Delayed irritation: >30 min
[1]; Subject 5, powder equivalent to 20 mg of vortioxetine tasted, listed as Reference sample (8a)
  Delayed irritation: 15 to 30 min
[1]; Subject 5, powder equivalent to 20 mg of vortioxetine tasted, listed as Reference sample (8b)
  Delayed irritation: 15 to 30 min
[1]; Subject 5, powder equivalent to 20 mg of vortioxetine tasted, listed as Reference sample (1d)
  Delayed irritation: >30 min
[1]; Subject 5, powder equivalent to 20 mg of vortioxetine tasted, listed as Reference sample (2d)
  Delayed irritation: 15 to 30 min
[1]; average of 5 subjects, powder equivalent to 20 mg of vortioxetine
  Delayed irritation, time to disappear: more than 30 minutes
[1]; average of 5 subjects, powder equivalent to 20 mg of vortioxetine, listed as Reference sample (1a)
  Instantaneous irritation: +++ (+ + + Strong irritation, intolerable)
[1]; average of 5 subjects, powder equivalent to 20 mg of vortioxetine, listed as Reference sample (1e)
  Instantaneous irritation: +++ (+ + + Strong irritation, intolerable)
[1]; average of 5 subjects, powder equivalent to 20 mg of vortioxetine, listed as Reference sample (2a)
  Instantaneous irritation: +++ (+ + + Strong irritation, intolerable)
[1]; average of 5 subjects, powder equivalent to 20 mg of vortioxetine, listed as Reference sample (2c)
  Instantaneous irritation: ++ (+ + Irritating, tolerable)
[1]; average of 5 subjects, powder equivalent to 20 mg of vortioxetine, listed as Reference sample (3a)
  Instantaneous irritation: ++ (+ + Irritating, tolerable)
[1]; average of 5 subjects, powder equivalent to 20 mg of vortioxetine, listed as Reference sample (3b)
  Instantaneous irritation: ++ (+ + Irritating, tolerable)
[1]; average of 5 subjects, powder equivalent to 20 mg of vortioxetine, listed as Reference sample (3c)
  Instantaneous irritation: ++ (+ + Irritating, tolerable)
[1]; average of 5 subjects, powder equivalent to 20 mg of vortioxetine, listed as Reference sample (4a)
  Instantaneous irritation: +++ (+ + + Strong irritation, intolerable)
[1]; average of 5 subjects, powder equivalent to 20 mg of vortioxetine, listed as Reference sample (5)
  Instantaneous irritation: ++ (+ + Irritating, tolerable)
[1]; average of 5 subjects, powder equivalent to 20 mg of vortioxetine, listed as Reference sample (6)
  Instantaneous irritation: ++ (+ + Irritating, tolerable)
[1]; average of 5 subjects, powder equivalent to 20 mg of vortioxetine, listed as Reference sample (7a)
  Instantaneous irritation: +++ (+ + + Strong irritation, intolerable)
[1]; average of 5 subjects, powder equivalent to 20 mg of vortioxetine, listed as Reference sample (8a)
  Instantaneous irritation: ++ (+ + Irritating, tolerable)
[1]; average of 5 subjects, powder equivalent to 20 mg of vortioxetine, listed as Reference sample (8b)
  Instantaneous irritation: ++ (+ + Irritating, tolerable)
[1]; average of 5 subjects, powder equivalent to 20 mg of vortioxetine, listed as Reference sample (9a)
  Instantaneous irritation: +++ (+ + + Strong irritation, intolerable)
[1]; average of 5 subjects, powder equivalent to 20 mg of vortioxetine, listed as Reference sample (9c)
  Instantaneous irritation: +++ (+ + + Strong irritation, intolerable)
[1]; average of 5 subjects, powder equivalent to 20 mg of vortioxetine, listed as Reference sample (9e)
  Instantaneous irritation: ++ (+ + Irritating, tolerable)
[1]; average of 5 subjects, powder equivalent to 20 mg of vortioxetine, listed as Reference sample (11a)
  Instantaneous irritation: ++ (+ + Irritating, tolerable)
[1]; average of 5 subjects, powder equivalent to 20 mg of vortioxetine, listed as Reference sample (12a)
  Instantaneous irritation: +++ (+ + + Strong irritation, intolerable)
[1]; average of 5 subjects, powder equivalent to 20 mg of vortioxetine, listed as Reference sample (12b)
  Instantaneous irritation: +++ (+ + + Strong irritation, intolerable)
[1]; average of 5 subjects, powder equivalent to 20 mg of vortioxetine, listed as Reference sample (13a)
  Instantaneous irritation: ++ (+ + Irritating, tolerable)
[1]; average of 5 subjects, powder equivalent to 20 mg of vortioxetine, listed as Reference sample (13b)
  Instantaneous irritation: ++ (+ + Irritating, tolerable)
[1]; average of 5 subjects, powder equivalent to 20 mg of vortioxetine, listed as Reference sample (14a)
  Instantaneous irritation: ++ (+ + Irritating, tolerable)
[1]; average of 5 subjects, powder equivalent to 20 mg of vortioxetine, listed as Reference sample (16)
  Instantaneous irritation: ++ (+ + Irritating, tolerable)
[1]; average of 5 subjects, powder equivalent to 20 mg of vortioxetine, listed as Reference sample (17)
  Instantaneous irritation: ++ (+ + Irritating, tolerable)
[1]; average of 5 subjects, powder equivalent to 20 mg of vortioxetine, listed as Reference sample (1d)
  Instantaneous irritation: +++ (+ + + Strong irritation, intolerable)
[1]; average of 5 subjects, powder equivalent to 20 mg of vortioxetine, listed as Reference sample (2d)
  Instantaneous irritation: ++ (+ + Irritating, tolerable)
[1]; average of 5 subjects, powder equivalent to 20 mg of vortioxetine, listed as Reference sample (9d)
  Instantaneous irritation: ++ (+ + Irritating, tolerable)
[2]
  solubility: 140 µg/mL
[3]
  Irritation compared with vortioxetine hydrobromide, in words: significantly less irritating
